# Several values for one entry are separate records, joined by “and”; a condition that tells them apart may be missing. Equal entries are not always repeated.
# Experiments:
# MAO-A enzyme = biological target: T1, MAO-A enzyme (Homo sapiens, UniProt P21397); test: MAO-A enzyme inhibition, fluorometric method; type: biochemical; settings: for IC50: 10^–3–10^–9 M concentrations; for selectivity: MAO isoform preferentially inhibited; for SI* selectivity index: SI = IC50MAO-B/IC50 MAO-A; for inhibition at 1000 µM: read-out: MAO-A % inhibition 10^–3 M; for inhibition at 100 µM: read-out: MAO-A % inhibition 10^–4 M
# T1 sequence (P21397 1-527): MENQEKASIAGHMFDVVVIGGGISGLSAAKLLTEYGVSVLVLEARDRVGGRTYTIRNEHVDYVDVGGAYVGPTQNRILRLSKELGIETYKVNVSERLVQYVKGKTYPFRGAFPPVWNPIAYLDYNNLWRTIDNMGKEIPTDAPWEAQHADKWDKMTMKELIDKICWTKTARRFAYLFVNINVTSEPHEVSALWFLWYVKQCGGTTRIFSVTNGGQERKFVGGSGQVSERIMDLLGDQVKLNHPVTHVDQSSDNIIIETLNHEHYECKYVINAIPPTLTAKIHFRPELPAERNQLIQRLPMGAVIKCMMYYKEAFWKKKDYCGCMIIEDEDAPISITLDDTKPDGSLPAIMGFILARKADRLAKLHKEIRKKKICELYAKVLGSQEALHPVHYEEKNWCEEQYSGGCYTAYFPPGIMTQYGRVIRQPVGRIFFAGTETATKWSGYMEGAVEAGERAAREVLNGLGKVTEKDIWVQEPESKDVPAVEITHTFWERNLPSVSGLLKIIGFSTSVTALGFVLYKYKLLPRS
# Text: (§1) Inhibition profiles of the synthesized compounds on MAO enzymes were investigated by the fluorometric method.
# (§2) In every step of the method, distilled water obtained from a Millipor, a Milli-Q Synthesis A10 purification device, was used. Care was taken in preparing all of the solutions used fresh and to consume them within 1 week after preparation. A BioTek-Precision Power robotic pipetting system was used in the processes of separating the solutions prepared in the enzyme inhibition study, applying the test compounds to 96-well plates, and adding the enzyme–substrate solutions.
# MAO-B enzyme = biological target: T2, MAO-B enzyme (Homo sapiens, UniProt P27338); test: MAO-B enzyme inhibition, fluorometric method; type: biochemical; settings: for inhibition at 1000 µM: 10^–3 M; for inhibition at 100 µM: read-out: MAO-B % inhibition 10^–4 M, 10^–4 M
# T2 sequence (P27338 1-520): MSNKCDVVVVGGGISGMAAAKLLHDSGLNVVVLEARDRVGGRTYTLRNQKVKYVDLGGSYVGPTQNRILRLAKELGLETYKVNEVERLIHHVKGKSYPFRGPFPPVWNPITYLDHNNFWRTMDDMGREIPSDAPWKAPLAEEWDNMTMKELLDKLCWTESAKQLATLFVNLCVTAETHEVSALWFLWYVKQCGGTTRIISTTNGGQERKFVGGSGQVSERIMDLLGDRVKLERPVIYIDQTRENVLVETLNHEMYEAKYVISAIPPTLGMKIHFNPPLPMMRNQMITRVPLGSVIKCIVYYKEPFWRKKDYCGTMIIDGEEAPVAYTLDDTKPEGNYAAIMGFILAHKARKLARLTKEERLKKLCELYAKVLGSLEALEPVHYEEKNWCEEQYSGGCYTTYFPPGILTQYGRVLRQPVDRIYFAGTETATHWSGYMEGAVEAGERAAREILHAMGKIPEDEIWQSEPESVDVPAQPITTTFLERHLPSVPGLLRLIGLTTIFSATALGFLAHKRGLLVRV
# Text: as §1
# as §2, with “solutions. The creation, monitoring, and spectrophotometric measurements of the enzyme protocol were performed on a BioTek-Synergy H1 microplate reader.[41],[42]” for “solutions.”
# [1] = In vitro BBB permeability assay (PAMPA); type: in vitro ADME
# [2] = tested on: NIH3T3 (healthy mouse fibroblast cells); test: Cytotoxicity test (MTT); type: cell-based
# Description: (§3) Just as important as the effectiveness of a compound is its side effect profile. For this purpose, cytotoxic effect tests of compound 2l were carried out. NIH3T3 (healthy mouse fibroblast cells) was used as the healthy cell in the experimental procedure.
# (§4) 3-(4,5-Dimethylthiazol-2-yl)-2,5-diphenyl tetrazolium bromide (MTT) stock solution (5 mg mL^–1) was prepared by dissolving in phosphate buffer (PBS). The viable cell count of NIH/3T3 (mouse healthy embryo fibroblast cells) cells grown in appropriate medium and culture medium was characterized, and each cell line was seeded in 96-well plates with 3000 cells in each well, and the cells were incubated for 24 h for their adhesion. […] At the end of the incubation, the medium in each well was removed and 100 μL of DMSO was added as a solvent and the absorbance values were read in an enzyme-linked immunosorbent assay (ELISA) device (Bio Tek Cytation3 multimode microplate reader) at a wavelength of 540 nm, with eight wells in each group. […] The obtained absorbance values give the metabolic activities of the cells, and these values are associated with the number of living cells. The results are determined as % inhibition values according to the formula given, and IC50 values are calculated from these values by using the Excel program.[52]−[54]
# Cytotoxicity test (MTT) = type: cell-based, mouse; settings: mouse, NIH3T3 mouse embryo fibroblast cells, 24 h
# Description: as §3, §4
IC50 (MAO-A enzyme),selectivity (MAO-A enzyme),SI* selectivity index (MAO-A enzyme),inhibition at 1000 µM (MAO-A enzyme),inhibition at 100 µM (MAO-A enzyme),IC50 (MAO-B enzyme),inhibition at 1000 µM (MAO-B enzyme),inhibition at 100 µM (MAO-B enzyme),BBB permeability (in words) [1],Structure (SMILES),cytotoxic effect result [2],IC50 at 24 h (Cytotoxicity test (MTT))
130 ± 10 nM,MAO-A,>787.40,89.9 ± 1.76%,73.7 ± 0.83%,> 100000 nM,74.5 ± 1.4%,40.7 ± 0.95%,–,"Fc1ccc(-c2csc(NN=Cc3cc4ccccc4o3)n2)c(F)c1 [2k, 2-(2-(Benzofuran-2-ylmethylene)hydrazinyl)-4-(2,4-difluorophenyl)thiazole]",–,–
340 ± 10 nM,MAO-A,>4.06,85.7 ± 1.48%,73.6 ± 1.16%,1370 ± 60 nM,82.7 ± 1.66%,> 50%,–,"Fc1ccc(-c2csc(NN=Cc3cc4ccccc4o3)n2)cc1 [2f, 2-(2-(Benzofuran-2-ylmethylene)hydrazinyl)-4-(4-fluorophenyl)thiazole]",–,–
420 ± 20 nM,MAO-A,>2.53,86.8 ± 1.6%,78.5 ± 1.09%,1060 ± 50 nM,70.2 ± 1.36%,> 50%,–,"Brc1ccc(-c2csc(NN=Cc3cc4ccccc4o3)n2)cc1 [2h, 2-(2-(Benzofuran-2-ylmethylene)hydrazinyl)-4-(4-bromophenyl)thiazole]",–,–
260 ± 10 nM,MAO-A,>386.10,83.2 ± 1.65%,69.3 ± 0.9%,> 100000 nM,72.1 ± 1.4%,48.3 ± 0.86%,–,"O=[N+]([O-])c1ccc(-c2csc(NN=Cc3cc4ccccc4o3)n2)cc1 [2e, 2-(2-(Benzofuran-2-ylmethylene)hydrazinyl)-4-(4-nitrophenyl)thiazole]",–,–
140 ± 10 nM,MAO-A,>719.42,87.5 ± 1.8%,68.4 ± 1.15%,> 100000 nM,67.9 ± 1.3%,41.5 ± 0.75%,–,"COc1ccc(-c2csc(NN=Cc3cc4ccccc4o3)n2)c(OC)c1 [2j, 2-(2-(Benzofuran-2-ylmethylene)hydrazinyl)-4-(2,4-dimethoxyphenyl)thiazole]",–,–
310 ± 10 nM,MAO-A,>326.79,80.8 ± 1.69%,71 ± 1.18%,> 100000 nM,69 ± 1.05%,40.7 ± 0.98%,–,"N#Cc1ccc(-c2csc(NN=Cc3cc4ccccc4o3)n2)cc1 [2d, 4-(2-(2-(Benzofuran-2-ylmethylene)hydrazinyl)thiazol-4-yl)benzonitrile]",–,–
210 ± 10 nM,MAO-A,>458.72,87 ± 1.92%,78.2 ± 1.44%,> 100000 nM,64.5 ± 1.12%,47.1 ± 0.85%,–,"Cc1ccc(-c2csc(NN=Cc3cc4ccccc4o3)n2)cc1 [2b, 2-(2-(Benzofuran-2-ylmethylene)hydrazinyl)-4-(p-tolyl)thiazole]",–,–
80 ± 10 nM,MAO-A,>9.91,90.4 ± 1.66%,83.7 ± 1.09%,800 ± 30 nM,85.2 ± 1.01%,> 50%,–,"C(=NNc1nc(-c2ccccc2)cs1)c1cc2ccccc2o1 [2a, 2-(2-(Benzofuran-2-ylmethylene)hydrazinyl)-4-phenylthiazole]",–,–
430 ± 20 nM,MAO-A,>3.93,84.2 ± 1.35%,71.3 ± 1.86%,1690 ± 80 nM,73.5 ± 1.49%,> 50%,–,"Cc1ccc(-c2csc(NN=Cc3cc4ccccc4o3)n2)c(C)c1 [2i, 2-(2-(Benzofuran-2-ylmethylene)hydrazinyl)-4-(2,4-dimethylphenyl)thiazole]",–,–
73 nM and 70 nM,MAO-A,>10.30,94 ± 1.65%,91.4 ± 1.36%,750 ± 30 nM,86.6 ± 1.29%,–,high BBB permeability,"Clc1ccc(-c2csc(NN=Cc3cc4ccccc4o3)n2)c(Cl)c1 [2l, 2-(2-(Benzofuran-2-ylmethylene)hydrazinyl)-4-(2,4-dichlorophenyl)thiazole]",nontoxic,> 100000 nM
180 ± 10 nM,MAO-A,>568.18,85.2 ± 2.03%,72.8 ± 1.36%,> 100000 nM,55.8 ± 0.96%,42.8 ± 0.89%,–,"COc1ccc(-c2csc(NN=Cc3cc4ccccc4o3)n2)cc1 [2c, 2-(2-(Benzofuran-2-ylmethylene)hydrazinyl)-4-(4-methoxyphenyl)thiazole]",–,–
90 ± 10 nM,MAO-A,>1075.27,79.5 ± 1.06%,68.7 ± 0.94%,> 100000 nM,68.4 ± 0.97%,45.2 ± 0.86%,–,"Clc1ccc(-c2csc(NN=Cc3cc4ccccc4o3)n2)cc1 [2g, 2-(2-(Benzofuran-2-ylmethylene)hydrazinyl)-4-(4-chlorophenyl)thiazole]",–,–

Structure (SMILES),IC50 (MAO-A enzyme),selectivity (MAO-A enzyme),SI* selectivity index (MAO-A enzyme),inhibition at 1000 µM (MAO-A enzyme),inhibition at 100 µM (MAO-A enzyme),IC50 (MAO-B enzyme),inhibition at 1000 µM (MAO-B enzyme),inhibition at 100 µM (MAO-B enzyme),BBB permeability (in words) [1],cytotoxic effect result [2],IC50 at 24 h (Cytotoxicity test (MTT))
"O=C(NCCN1CCOCC1)c1ccc(Cl)cc1 [Moclobemid, moclobemide, reference compound]",–,–,–,94.1 ± 2.76%,82.1 ± 2.69%,–,–,–,–,–,–

# Source: article PMC10938434, “Design, Synthesis, and Biological Effect Studies of Novel Benzofuran–Thiazolylhydrazone Derivatives as Monoamine Oxidase Inhibitors” (ACS Omega, 2024)
